Reference: patent publication US20240050526A1, “CATH2 DERIVATIVES FOR STIMULATING INNATE IMMUNE MEMORY” (priority 2020, published 2024)
Ends that are not written are not given here.

Columns and labels:
Type in all cases: cell-based, human
[1] = system: dTHP-1 cells; assay: DCATH-2 training of dTHP-1 cells in the presence of pathway inhibitors; conditions: 1 μg/ml Pam3CSK4; for effect of inhibitor on DCATH-2 training (amplified Pam3CSK4-induced TNFα production): inhibitor 1 h before and during priming with 5 μM DCATH-2, 3 days rest; for Pam3CSK-induced TNFα production in the presence of inhibitor: reference level of FIG. 4a, means, SEM, 3 experiments
Method: (§1) THP-1 cells were cultured in Iscove Modified Dulbecco Media (IMDM, Gibco) containing Glutamax-I, sodium pyruvate, 10% fetal calf serum at 37° C. and 5% CO2. For differentiation to macrophage-like cells, THP-1 cells were grown in IMDM/FCS medium containing 8 of 100 nM PMA and seeded in 96 wells (5×10^4 cells/well), 24 wells (3×10^5 cells/well) or 6 wells plates (1×10^6 cells/well) during 48 h. Subsequently, dTHP-1 were washed with pre-warmed IMDM/FCS, left overnight to rest and primed during 1 to 24 h with 2-10 μM peptides of fresh IMDM/FCS medium, washed 3 times in medium. After 3 days rest cells were stimulated with various stimuli: S. minnesota LPS (10 ng/ml), E. coli LPS (10 or 50 ng/ml), Pam3CSK4 (1 μg/ml) or Pam2CSK4 (1 μg/ml). After 24 h supernatants were collected and stored at −20° C. For inhibition, dTHP-1 cells were pre-incubated for 1 h before priming and during priming with rapamycin (10 nM), AICAR (50 nM), metformin (0.3 mM), wortmannin (1 μM), ascorbate (50 μM), SB203580 (10 μM), PD98059 (10 μM), SP600125 (10 μM), EGCG (40 μM), anacardic acid (50 μM), curcumin (10 μM), garcinol (10 μM), Bay-11-7085 (10 μM), MTA (1 mM), MM-102 (25 μM), suramin (50 μM), KN-62 (3 μM), nystatin (10 μg/ml), and chlorpromazine (10 μM).
(§2) TNFα, IL-6, CXCL10 and CCL5 production were measured using ELISA (R&D systems) following instructions of the manufacturer.

[2] = system: dTHP-1 cells; assay: Confocal imaging of Tamra-labelled DCATH-2 uptake by dTHP-1 cells; conditions: 1 h pre-incubation with inhibitor, 3 h priming with Tamra-DCATH-2
Method: 3×10^5 dTHP-1 cells were seeded on 8 mm coverslips in 24 wells plates and differentiated for 48 h with 100 nM PMA in 0.5 ml medium. Wells were washed 3 times, and cells were primed for 3 h with Tamra-labelled DCATH-2 (TD) or medium. For inhibition conditions, cells were pre-incubated before priming for 1 h with 3 μM KN-62, 50 μM suramin, 10 μM chlorpromazine, or 10 μg/ml nystatin. After priming, coverslips were washed 3 times with warm medium and fixated for 30 min in 4% paraformaldehyde solution (0.1 M phosphate buffer, pH 7.4). After staining of nuclei with Hoechst (Molecular probes) for 10 min, coverslips were mounted on glass slides using ProLong glass antifade mountant (Thermofisher, P36980). Confocal images were acquired on a Leica SPE-II using the 100×HCX PLAN APO (NA=1.4-0.7) objective. Imaging was performed using a quadruple band beam splitter for the 561 nm laser. Visualization of Hoechst stained dTHP-1 cells was done with a 405 nm (100 mW) Coherent Violet Cube laser. Image analysis was done using composite images of both channels. In brief, regions of interest were set manually using DIC for segmentation. To isolate puncta from background noise, a threshold was set for the Tamra channel and intensity and area of puncta were measured partially automated using a script.

[3] = system: dTHP-1 cells; assay: Innate immune training of dTHP-1 cells by cathelicidin peptides, cytokine ELISA after TLR agonist re-stimulation; conditions: priming 24 h with 10 μM peptide; 100 nM PMA dTHP-1 cells; 3 days rest; re-stimulated with 10 ng/ml Salmonella minnesota LPS
Method: as §1, §2
Extrapolating from the trained immunity experiments with human monocytes, we examined if mature cathelicidin peptides could induce trained immunity in TH P-1 cells, a human monocyte cell line. TH P-1 cells were differentiated with 100 nM or 8 nM phorbol 12-myristate 13-acetate (PMA) during 48 h washed 3 times and, after overnight rest, primed with 2-10 μM of chicken cathelicidin 2 (CATH-2), its full D-analog DCATH-2 or human cathelicidin LL-37 for 24 h. Subsequently, dTHP-1 cells were washed 3 times and re-stimulated after a 3-day rest period with TLR agonists (24 h) (FIG. 1a). […] Priming with 5 μM of its full-D-amino acid analog DCATH-2 amplified 2- to 3-fold the TNFα and IL-6 production in response to LPS stimulation. A minor response was found for priming with 10 μM LL-37, which amplified IL-6 production 1.4-fold in 100 nM differentiated cells.

Q: `NC(=O)c1ncn([C@@H]2O[C@H](COP(=O)(O)O)[C@@H](O)[C@H]2O)c1N` [AICAR, 5-aminoimidazole-4-carboxamide ribonucleotide] was tested. Which “effect of inhibitor on DCATH-2 training (amplified Pam3CSK4-induced TNFα production)” value (from here on “effect of inhibitor on DCATH-2 training”) [1] did it give?
A: The value was “did not result in a significant reduction”.

Q: And the “Pam3CSK-induced TNFα production in the presence of inhibitor” value [1]?
A: Its value is 335 ± 89 pg/mL.

Q: Which “effect of inhibitor on DCATH-2 training” value [1] does the source give for `CC(C)(C)c1ccc(S(=O)(=O)/C=C/C#N)cc1` [Bay-11-7085] here?
A: Its value is “did not impair”.

Q: Which “effect of inhibitor on DCATH-2 training” value [1] does the source give for `O=C(O[C@@H]1Cc2c(O)cc(O)cc2O[C@@H]1c1cc(O)c(O)c(O)c1)c1cc(O)c(O)c(O)c1` [EGCG, epigallocatechin gallate] here?
A: Its value is “abrogated”.

Q: Which results are given for `CN([C@@H](Cc1ccc(OS(=O)(=O)c2cccc3cnccc23)cc1)C(=O)N1CCN(c2ccccc2)CC1)S(=O)(=O)c1cccc2cnccc12` [KN-62]?
A: effect of inhibitor on uptake of TAMRA-labelled DCATH-2 by dTHP-1 cells [2]: reduced uptake; effect of inhibitor on DCATH-2 training (amplified Pam3CSK4-induced TNFα production) [1]: partially inhibited

Q: With `CCC(CC)(NC(=O)C(C)C)C(=O)N[C@@H](CCCN=C(N)N)C(=O)NC1(C(=O)NC(c2ccc(F)cc2)c2ccc(F)cc2)CCCC1` [MM-102] as the compound, how does the “effect of inhibitor on DCATH-2 training” value [1] read?
A: Its value is “not affected”.

Q: How did the “effect of inhibitor on DCATH-2 training” value [1] turn out when `COc1cccc(-c2cc(=O)c3ccccc3o2)c1N` [PD58059] was run?
A: The value was “no effect”.

Q: With `C[S+]([O-])c1ccc(-c2nc(-c3ccncc3)c(-c3ccc(F)cc3)[nH]2)cc1` (stereo not shown) [SB203580] as the compound, how does the “effect of inhibitor on DCATH-2 training” value [1] read?
A: The value was “completely blocked”.

Q: For `Oc1c2ccccc2c2c3c(cccc13)N=N2` [SP600125], which “effect of inhibitor on DCATH-2 training” value [1] is on record?
A: The value was “no effect”.

Q: Which “effect of inhibitor on DCATH-2 training” value [1] does the source give for `CCCCCCCCCCCCCCCc1cccc(O)c1C(=O)O` [anacardic acid] here?
A: The value was “abrogated”.

Q: With `O=C1O[C@H]([C@@H](O)CO)C(O)=C1O` [ascorbate] as the compound, how does the “Pam3CSK-induced TNFα production in the presence of inhibitor” value [1] read?
A: Its value is 421 ± 112 pg/mL.

Q: `CN(C)CCCN1c2ccccc2Sc2ccc(Cl)cc21` [chlorpromazin, chlorpromazine] was tested. Which “effect of inhibitor on uptake of TAMRA-labelled DCATH-2 by dTHP-1 cells” value [2] did it give?
A: Its value is “not affected”.

Q: And the “effect of inhibitor on DCATH-2 training” value [1]?
A: Its value is “not affected”.

Q: With `COc1cc(/C=C/C(=O)CC(=O)/C=C/c2ccc(O)c(OC)c2)ccc1O` [curcumin] as the compound, how does the “effect of inhibitor on DCATH-2 training” value [1] read?
A: Its value is “not by garcinol or curcumin”.

Q: For `CN(C)C(=N)N=C(N)N` [metformin], which “effect of inhibitor on DCATH-2 training” value [1] is on record?
A: The value was “did not result in a significant reduction”.

Q: What about the “Pam3CSK-induced TNFα production in the presence of inhibitor” value [1] of the same compound?
A: Its value is 387 ± 99 pg/mL.

Q: With `C[C@@H]1[C@H](O)[C@@H](C)/C=C/C=C/CC/C=C/C=C/C=C/C=C/C(O[C@H]2O[C@H](C)[C@@H](O)[C@H](N)[C@@H]2O)CC2O[C@](O)(CC(O)C(O)CCC(O)CC(O)CC(O)CC(=O)O[C@H]1C)CC(O)C2C(=O)O` (stereo partly shown) [nystatin] as the compound, how does the “effect of inhibitor on uptake of TAMRA-labelled DCATH-2 by dTHP-1 cells” value [2] read?
A: The value was “reduced uptake”.

Q: What about the “effect of inhibitor on DCATH-2 training” value [1] of the same compound?
A: Its value is “strongly impaired”.

Q: `CO[C@H]1C[C@@H]2CC[C@@H](C)[C@@](O)(O2)C(=O)C(=O)N2CCCC[C@H]2C(=O)O[C@H]([C@H](C)C[C@@H]2CC[C@@H](O)[C@H](OC)C2)CC(=O)[C@H](C)/C=C(\C)[C@@H](O)[C@@H](OC)C(=O)[C@H](C)C[C@H](C)/C=C/C=C/C=C/1C` [rapamycin] was tested. Which “Pam3CSK-induced TNFα production in the presence of inhibitor” value [1] did it give?
A: The value was 318 ± 45 pg/mL.

Q: What does the source list for `Cc1ccc(C(=O)Nc2ccc(S(=O)(=O)O)c3cc(S(=O)(=O)O)cc(S(=O)(=O)O)c23)cc1NC(=O)c1cccc(NC(=O)Nc2cccc(C(=O)Nc3cc(C(=O)Nc4ccc(S(=O)(=O)O)c5cc(S(=O)(=O)O)cc(S(=O)(=O)O)c45)ccc3C)c2)c1` [suramin]?
A: effect of inhibitor on uptake of TAMRA-labelled DCATH-2 by dTHP-1 cells [2]: reduced uptake; effect of inhibitor on DCATH-2 training (amplified Pam3CSK4-induced TNFα production) [1]: completely impaired

Q: `COC[C@H]1OC(=O)c2coc3c2[C@@]1(C)C1=C(C3=O)[C@@H]2CCC(=O)[C@@]2(C)C[C@H]1OC(C)=O` [wortmannin] was tested. Which “Pam3CSK-induced TNFα production in the presence of inhibitor” value [1] did it give?
A: Its value is 354 ± 135 pg/mL.

Q: With “LLGDFFRKSKEKIGKEFKRIVQRIKDFLRNLVPRTES [LL-37, human cathelicidin, reference compound]” as the compound, how does the “amplification of IL-6 production” value [3] read?
A: The value was 1.4 fold.

Q: With “RFGRFLRKIRRFRPKVTITIQGSARF-NH2 [CATH-2, chicken cathelicidin 2 peptide]” as the compound, how does the “amplification of IL-6 production” value [3] read?
A: Its value is 1.8 fold.
